Patent US7955852B2, “Expansion of renewable stem cell populations” (Gamida Cell Ltd., priority 2002, dated 2011)
Where “and” joins values, the source holds several entries; their conditions need not be identical. Identical values can stand only once.

Legend:
Type in all cases: cell-based, human
[1] = system: CD34+ cells; experiment: Ex-vivo expansion of CD34+ cell enriched cord blood cultures with cytokines; cell counts and FACS surface antigen analysis; conditions: for No. of CD34+ cells: treated for one week only; for % 34+ cells / % 34+/38− cells / % 34+/Lin− cells / No. of cells (×10^4): two weeks after seeding, 4 cytokines
Description: (§1) Human blood cells were obtained from umbilical cord blood from female patients following full-term, normal delivery (informed consent was obtained).
Samples were collected and processed within 12 hours postpartum. Blood was mixed with 3% Gelatin (Sigma, St. Louis, Mo.), sedimented for 30 minutes to remove most red blood cells. […] The mononuclear cell fraction in the interface layer was collected, washed three times and resuspended in phosphate-buffered saline (PBS) solution (Biological Industries) containing 0.5% bovine serum albumin (BSA, Fraction V; Sigma).
To purify CD34^+ mononuclear cells, the fraction was subjected to two cycles of immuno-magnetic separation using the MiniMACS® or Clinimax® CD34 Progenitor Cell Isolation Kit (Miltenyi Biotec, Auburn, Calif.) as per manufacturer's recommendations.
CD34^+ expressing purified cells above were cultured in 24-well Costar Cell Culture Clusters (Corning Inc., Corning, N.Y.) or culture bags (American Fluoroseal Corp), at a concentration of 10^4 cells/ml in alpha medium (Biological Industries, Beit Haemek, Israel) supplemented with 10% fetal bovine serum (FBS, Biological Industries). The following human recombinant cytokines were added: Thrombopoietin (TPO), interleukin-6 (IL-6), FLT-3 ligand and stem cell factor (SCF), all at final concentrations of 50 ng/ml each, though occasionally IL-3, at a concentration of 20 ng/ml, was added either together or instead of SCF. For non-hematopoietic cell differentiation, FGF, EGF, NGF, VEGF, LIF or Hepatocyte growth factor (HGF) were used to supplement the growth medium, either alone or in various combinations. All cytokines used were purchased from Perpo Tech, Inc. (Rocky Hill, N.J.). The cultures were incubated at 37° C., 5% CO2, in a humidified atmosphere.
At weekly intervals, cell cultures were toped and semi-depopulated and were supplemented with fresh medium, serum and cytokines or supplemented with fresh growth medium, alone. At predetermined time points, cells were harvested, stained with trypan blue, counted, and cell morphology was determined via the use of cytospin (Shandon, UK)-prepared smears stained with May-Grunwald/Giemsa solutions.
CD34^+ purified and whole MNC cultures were prepared and maintained as described above. […] The antagonist was added for a predetermined, limited period, for up to three weeks or continuously during the entire culture period.
Cells were harvested, washed with a PBS solution containing 1% bovine sera albumin (BSA) and 0.1% sodium azide (Sigma), and stained at 4° C. for 60 minutes with fluorescein isothiocyanate or phycoerythrin-conjugated antibodies (all from Immunoquality Products, the Netherlands). The cells were then washed with the same buffer and analyzed by FACS caliber or Facstarplus flow cytometers. Cells were passed at a rate of 1000 cells/second, using saline as the sheath fluid. A 488 nm argon laser beam served as the light source for excitation. Emission of ten thousand cells was measured using logarithmic amplification, and analyzed using CellQuest software. Negative control staining of cells was accomplished with mouse IgG-PE (Dako A/S Glostrup, Denmark) and mouse IgG-FITC (BD Biosciences, Erembodegem, Belgium).
(§2) CD34 surface expression on short and long-term cultures initiated either with purified CD34^+ cells or the entire MNC fraction was determined as follows: CD34^+ cells were positively reselected (Miltenyi kit) and counted. Purity was confirmed by subsequent FACS and cell morphology analysis.
(§3) Reselected CD34^+ cell subsets were stained for the following combination of antigens: CD34PE/CD38FITC and CD34PE/38, 33, 14, 15, 3, 4, 61, 19 (Lin) FITC. The fraction positive for CD34 and negative for CD38 was defined as CD34^+CD38^−. The fraction positive for CD34 and negative for LIN was defined as CD34^+Lin^− cell fraction.
FACS analysis results are given as percentage values of cells. Absolute numbers of subsets are calculated from the absolute number of CD34^+ cells.

[2] = system: CD34+ cells; experiment: Colony forming unit (CFU / LTC-CFUc) ability of ex-vivo CD34+ cell cultures; conditions: for No. of CFU*103: 10^−5 M, treated for one week only
Description: (§4) Total cell counts, numbers of CD34^+ cells and subsets, and CFU numbers are presented as cumulative numbers, with the assumption that the cultures had not been passaged; i.e., the number of cells per ml were multiplied by the number of passages performed.
Cells were cloned in semi-solid, methylcellulose-containing medium supplemented with 2 IU/ml erythropoietin (Eprex, Cilag AG Int., Switzerland), stem cell factor and IL-3, both at 20 ng/ml, and G-CSF and GM-CSF, both at 10 ng/ml (all from Perpo Tech). Cultures were incubated for 14 days at 37° C., 5% CO2 in a humidified atmosphere.
Briefly, the ability of the cultures to maintain self-renewal was measured by determination of the content of colony forming unit cells in the long and extended long-term cultures (LTC-CFUc), as described in the references hereinabove.

[3] = system: mononuclear cells; experiment: Ex-vivo expansion of whole mononuclear cell fraction (MNC) cultures; FACS of reselected CD34+ cells; conditions: 10^−6 M + cytokines; for % CD34/Lin−: reselected CD34+ fraction, listed as RAR antagonist
Description: as §1
Samples were collected and processed within 12 hours postpartum. Blood was mixed with 3% Gelatin (Sigma, St. Louis, Mo.), sedimented for 30 minutes to remove most red blood cells. The leukocyte-rich fraction was harvested and layered on a Ficoll-Hypaque gradient (1.077 gram/ml; Sigma), and centrifuged at 400 g for 30 minutes. The mononuclear cell fraction in the interface layer was collected, washed three times and resuspended in phosphate-buffered saline (PBS) solution (Biological Industries) containing 0.5% bovine serum albumin (BSA, Fraction V; Sigma).
Alternatively, whole mononuclear fraction cells (MNC) were isolated, cultured and supplemented with cytokines, as above.
CD34^+ purified and whole MNC cultures were prepared and maintained as described above. AGN 194310 RAR antagonist was added to test cultures at concentrations ranging from 1×10^−3-1×10^−11 M [or 410 μg/l to 4.1×10^−5 μg/l]. The antagonist was added for a predetermined, limited period, for up to three weeks or continuously during the entire culture period.
as §2, §3, §4

[4] = 2 weeks expansion, re-selected CD34+ cell fraction (FIG. 2)

## CCc1ccc(C2=CC(C)(C)Sc3ccc(C#Cc4ccc(C(=O)O)cc4)cc32)cc1 [AGN 194310, 4-[[4-(4-ethylphenyl)-2,2-dimethyl-(2H)-thiochroman-6-yl]-ethynyl]benzoic acid]
[1]; [4]
  increase in CD34+CD38− surface expression: 1000 fold
  increase in CD34+Lin− surface expression: 500 fold
[1]; 10^−5 M, week 13
  No. of CD34+ cells: 10322
[1]; 10^−5 M, week 20
  No. of CD34+ cells: 0
[1]; 10^−5 M
  % 34+ cells: 18.94%
  % 34+/38− cells: 17.14%
  % 34+/Lin− cells: 15.18%
  No. of cells (×10^4): 42 ×10^4
[1]; 10^−6 M
  % 34+ cells: 19.59%
  % 34+/38− cells: 17.16%
  % 34+/Lin− cells: 11.91%
  No. of cells (×10^4): 52 ×10^4
[1]; 10^−7 M or 0.41 microgram/liter (FIG. 4)
  time post initial seeding until which cell proliferation was enabled: ≤ 11 weeks
[1]; 10^−7 M, along with IL-3, 3 and 5 weeks
  activity on ex vivo expansion of stem/progenitor cells: moderate activity
[1]; after two weeks in culture, CD34+ re-selected fraction (FIG. 3C)
  increase in CD34+Lin− surface expression: 530 fold
[1]; antagonist for the first three weeks only, then eight weeks without
  increase in CD34+ expression between week three to eleven: 92 fold
[1]; two weeks, FACS (FIGS. 1A-C)
  expression of differentiation associated antigens CD33, CD14, CD15, CD4, CD3, CD19 and CD61: significantly inhibited
  expression of the CD38 antigen: completely abolished
[1]; week 11, antagonist for the first three weeks only
  expansion of CD34+ compartment since the initiation of the cultures: 1621 fold
[1]; week eleven, 9 weeks after termination of antagonist treatment
  increase in CD34+Lin− expression: 16,700 fold
[2]; week 13
  No. of CFU*103: 66355 *103
[2]; week 20
  No. of CFU*103: 0 *103
[2]; extended long-term (8-10 week) cultures, pulse-treatment or continuous treatment
  increase of CFU content: 15 ×10^4
[2]; long-term (6 weeks) cultures pulsed for the first 3 weeks
  increase in CFU content as compared to control: 5 fold
[2]; long-term cultures, antagonist administered continuously
  increase in CFU content as compared to control: 5 fold
[2]; long-term cultures, pulsed first 3 weeks or continuous (FIG. 7)
  mixed colony forming unit (CFU-mix) content vs control: dramatic increase
[3]; 2 weeks
  No of CD34+/Lin− × 10^4 (cumulative value): 132.5 × 10^4
  No of CD34 cells × 10^4 (cumulative value): 169 × 10^4
  % CD34/Lin−: 78% and 78.4%
[3]; 5 weeks
  No of CD34+/Lin− × 10^4 (cumulative value): 237.8 × 10^4
  No of CD34 cells × 10^4 (cumulative value): 985 × 10^4
  % CD34/Lin−: 24% and 24.1%
